This is an account of results in patent publication US20250382270A1, “3-DIARYLMETHYLENES AND USES THEREOF” (Atux Iskay LLC, priority 2020, published 2025).

One assay relates to A549 cells. The assay is described as follows: A549 cell growth inhibition assay (alamarBlue). The assay is classed as cell-based. Particulars: Homo sapiens, 72 hours treatment, alamarBlue fluorescence. As to the method: Example compounds 1a, 2, 4 and 6 were assayed in an A549 cell growth inhibition assay as follows. A549 cells were cultured in DMEM medium with supplement of 10% FBS and 1% Pen-strep. Assay conditions: to perform the proliferation assay, A549 cells were seeded at 5000 cells/90 μl growth medium/well on 96-well black clear-bottom tissue culture plate. Cells were incubated at 37° C. and 5% CO2 overnight to allow them to recover and reattach. Next day cells were treated with tested compounds for 72 hours. After treatment, cell proliferation was measured by Fluorescent quantitation of alamarBlue reagent. The alamarBlue assay incorporates a fluorometric/colorimetric growth indicator based on detection of metabolic activity. Specifically, resazurin, the active ingredient of alamarBlue reagent, is blue in color and virtually non-fluorescent. Upon entering cells, resazurin is reduced to resorufin, a compound that is red in color and highly fluorescent. Continued cell growth maintains a reduced environment, therefore increasing the overall fluorescence and color of the media surrounding cells. Our experiment has shown that the fluorescence intensity of alamarBlue reagent was directly proportional to cell number. To perform the alamarBlue assay, 10 μl of alamarBlue reagent was added to each well and the plate was incubated at 37° C. for an additional 1-4 hours. Fluorescence intensity was measured at an excitation of 530 nm and an emission of 590 nm using a BioTek Synergy™ 2 microplate reader.
Data analysis. Cell proliferation assays in triplicate were performed at each concentration. The fluorescent intensity data were analyzed using the computer software, Graphpad Prism. In the absence of the compound, the fluorescent intensity (Ft) in each data set was defined as 100%. In the absence of cells, the fluorescent intensity (Fb) in each data set was defined as 0%. The percent cell in the presence of each compound was calculated according to the following equation: % cell=(F-Fb)/(Ft-Fb), where F=the fluorescent intensity in the presence of the compound, Fb=the fluorescent intensity in the absence of cells, and Ft=the fluorescent intensity in the absence of the compound. The values of % cell versus a series of compound concentrations were then plotted using non-linear regression analysis of Sigmoidal dose-response curve generated with the equation Y=B+(T-B)/1+10^((LogEC50-X)×Hill Slope), where Y=percent cell, B=minimum percent cell, T=maximum percent cell, X=logarithm of compound and Hill Slope=slope factor or Hill coefficient. The IC50 value was determined by the concentration causing a half-maximal percent activity.
In general terms: Resazurin is reduced to fluorescent resorufin, in cell work by metabolically active cells.

For a further assay, the system named is A172 glioblastoma cells. The assay is described as follows: A172 cell growth inhibition assay (CellTiter-Glo). Particulars: Homo sapiens, A 172, 48-72 hours treatment, CellTiter-Glo luminescence, test range 1-30 μM. The assay is classed as cell-based. Here is the method:
Compounds were also assayed in an A172 cell growth inhibition assay as follows. A172 glioblastoma cells were cultured in Dulbecco's modified Eagle's medium (DMEM) supplemented with 10% fetal bovine serum and 1% Penicillin-streptomycin. Incubation was performed at 37° C. and 5% CO2.
A172 cells were seeded at 3000-3500 cells/90 ul growth medium per well on 96-well tissue culture plates. Cells were incubated overnight to allow them to recover and reattach. Next day cells were treated with tested compounds and incubated for 48-72 hours.
Cell Proliferation assays in triplicate were performed at each concentration. Compounds test range was 1-30 μM (0, 5, 10, 15, 20, 25, and 30). The compounds were dissolved in DMSO. A series of dilutions were made in 1% DMSO in growth medium so that the final concentration of DMSO is 0.1% in all of treatments.
After treatment, cells were allowed to equilibrate at room temperature for ½ to one hour. Cell proliferation was measured by Luminescence quantification using Promega CellTiter-Glo Luminescent Cell Viability Assay. To perform the assay, 100 μl of Celltiter-Glo substrate was added to each well, plates were shake for 2 minutes and allowed to equilibrate for 10 minutes at room temperature. Luminescence intensity was measured using the Spectramax i3x plate reader.
The Luminescence intensity data were analyzed using the computer software Graphpad Prism. In the absence of the compound, the luminescence intensity (Lr) in each data set was defined as 100% cell viability. The percent cell in the presence of each compound was calculated according to the following equation: […], where L=the luminescence intensity in the presence of the compound.
The values of % cell versus a series of compound concentrations (0, 5, 10, 15, 20, 25, and 30 μM) were then plotted using nonlinear regression analysis of Sigmoidal dose-response curve. IC50 values were determined by the concentration causing a half-maximal percent activity.
(ATP-based viability assays read luminescence as a measure of living cells.)

As for `COc1cccc2c1C(=O)c1c(O)c3c(c(O)c1C2=O)C[C@@](O)(C(=O)CO)C[C@@H]3O[C@H]1C[C@H](N)[C@H](O)[C@H](C)O1` [Doxorubicin, reference compound], the IC50 in the assay with A549 cells was 0.34 µM.
For the compound `O=S(=O)(Nc1ccc(OC(F)(F)F)cc1)N1CCCC(C(c2ccc(F)cc2)c2ccc(F)cc2)C1` (centres unmarked) [Example 1a, 3-(bis(4-fluorophenyl)methyl)-N-(4-(trifluoromethoxy)phenyl)piperidine-1-sulfonamide], the IC50 in the assay with A549 cells was 8.27 µM; in the assay on A172 glioblastoma cells it was 12.1 µM.
The matching figures for `O=S(=O)(Nc1ccccc1)N1CCCC(C(c2ccc(F)cc2)c2ccc(F)cc2)C1` (centres unmarked) [Example 2, 3-(bis(4-fluorophenyl)methyl)-N-phenylpiperidine-1-sulfonamide]: 22.9 µM and 23 µM.
Turning to `O=S(=O)(Nc1ccc(C(F)(F)F)cc1)N1CCCC(C(c2ccc(F)cc2)c2ccc(F)cc2)C1` (centres unmarked) [Example 4, 3-(bis(4-fluorophenyl)methyl)-N-(4-(trifluoromethyl)phenyl)piperidine-1-sulfonamide], the figures for the IC50 with A549 cells and in the assay on A172 glioblastoma cells were 9.61 µM and 17.1 µM, respectively.
On to `O=S(=O)(Nc1ccc(Cl)cc1)N1CCCC(C(c2ccc(F)cc2)c2ccc(F)cc2)C1` (centres unmarked) [Example 6, 3-(bis(4-fluorophenyl)methyl)-N-(4-chlorophenyl)piperidine-1-sulfonamide], for which, in the assay with A549 cells, the IC50 worked out at 12.8 µM.
`O=S(=O)(Nc1ccc(OC(F)(F)F)cc1)N1CCOC(C(c2ccc(F)cc2)c2ccc(F)cc2)C1` (centres unmarked) [Example 19, 2-(bis(4-fluorophenyl)methyl)-N-(4-(trifluoromethoxy)phenyl)morpholine-4-sulfonamide] showed an IC50 in the assay with A172 glioblastoma cells of 18.2 µM.
On to `O=S(=O)(Nc1ccc(C(F)(F)F)cc1)N1CCOC(C(c2ccc(F)cc2)c2ccc(F)cc2)C1` (centres unmarked) [Example 22], for which it took 26 µM to reach half-maximal inhibition with A172 glioblastoma cells (IC50).
`O=S(=O)(Nc1ccc(Cl)cc1)N1CCOC(C(c2ccc(F)cc2)c2ccc(F)cc2)C1` (centres unmarked) [Example 25] showed an IC50 in the assay with A172 glioblastoma cells of 19.4 µM.
`O=S(=O)(Nc1cccc(Cl)c1)N1CCOC(C(c2ccc(F)cc2)c2ccc(F)cc2)C1` (centres unmarked) [Example 26] had an IC50 in the assay with A172 glioblastoma cells of 28.2 µM.
Still for that read-out and setting: the result for `O=S(=O)(Nc1ccc(OC(F)(F)F)cc1)N1CCCC(C2c3ccccc3CCc3ccccc32)C1` (centres unmarked) [Example 37] reads 11 µM; that for `O=S(=O)(Nc1ccc(C(F)(F)F)cc1)N1CCCC(C2c3ccccc3CCc3ccccc32)C1` (centres unmarked) [Example 40], 15.8 µM.
Turning to `O=[N+]([O-])c1ccc(NS(=O)(=O)N2CCCC(C3c4ccccc4CCc4ccccc43)C2)cc1` (centres unmarked) [Example 42], the IC50 with A172 glioblastoma cells was determined as 51 µM.
Same read-out and setting: in the case of `O=S(=O)(Nc1ccc(OC(F)(F)F)cc1)N1CCCC(C2c3ccc(F)cc3CCc3cc(F)ccc32)C1` (centres unmarked) [Example 71] it was 13 µM.
As for `O=S(=O)(Nc1ccc(Cl)c(Cl)c1)N1CCOC(C(c2ccc(F)cc2)c2ccc(F)cc2)C1` (centres unmarked) [Example 93], the IC50 in the assay on A172 glioblastoma cells is 45 µM.
Take `O=S(=O)(Nc1cc(Cl)cc(Cl)c1)N1CCOC(C(c2ccc(F)cc2)c2ccc(F)cc2)C1` (centres unmarked) [Example 94]: the IC50 in the assay with A172 glioblastoma cells stood at 23.2 µM.
On to `O=S(=O)(NCc1ccc(F)cc1)N1CCCC(C2c3ccccc3CCc3ccccc32)C1` (centres unmarked) [Example 96], for which, in the assay on A172 glioblastoma cells, half-maximal inhibition (IC50) required 16.1 µM.
On the same count and under the same terms, the result for `O=S(=O)(NCc1ccc(F)cc1)N1CCOC(C(c2ccc(F)cc2)c2ccc(F)cc2)C1` (centres unmarked) [Example 97] reads 27.2 µM.
As to `O=S(=O)(NCc1ccc(C(F)(F)F)cc1)N1CCCC(C2c3ccccc3CCc3ccccc32)C1` (centres unmarked) [Example 98], in the assay on A172 glioblastoma cells, the IC50 is 10.4 µM.
`O=S(=O)(Nc1ncc(C(F)(F)F)cn1)N1CCCC(C2c3ccccc3CCc3ccccc32)C1` (centres unmarked) [Example 99] showed an IC50 in the assay with A172 glioblastoma cells of 25.3 µM.
In the assay with A172 glioblastoma cells, `O=S(=O)(Nc1ccc(Cl)c(Cl)c1)N1CCCC(C(c2ccc(F)cc2)c2ccc(F)cc2)C1` (centres unmarked) [Example 100] returned an IC50 of 16.2 µM.
As to `O=S(=O)(Nc1cccc(C(F)(F)F)c1)N1CCCC(C(c2ccc(F)cc2)c2ccc(F)cc2)C1` (centres unmarked) [Example 101], the IC50 in the assay with A172 glioblastoma cells was 22.1 µM.
On the same count and under the same terms, in the case of `O=S(=O)(Nc1cccc(C(F)(F)F)c1)N1CCOC(C(c2ccc(F)cc2)c2ccc(F)cc2)C1` (centres unmarked) [Example 102] it was 20.6 µM; in that of `CC(C)(C)OC(=O)Nc1ccc(NS(=O)(=O)N2CCCC(C(c3ccc(F)cc3)c3ccc(F)cc3)C2)cc1` (centres unmarked) [Example 103], 10.3 µM.
In turn, `O=S(=O)(Nc1ccc(OC(F)(F)F)cc1)N1CCCC(=C(c2ccc(F)cc2)c2ccc(F)cc2)C1` [Example 104] registered an IC50 in the assay on A172 glioblastoma cells of 14.8 µM.
Same read-out and setting: the result for `O=S(=O)(Nc1ccc(OC(F)(F)F)cc1)N1CCCC(=C(c2ccccc2)c2ccccc2)C1` [Example 105] reads 20.3 µM.
`O=S(=O)(Nc1ccc2c(c1)OC(F)(F)O2)N1CCCC(C2c3ccccc3CCc3ccccc32)C1` (centres unmarked) [Example 106] gave an IC50 in the assay on A172 glioblastoma cells of 12.8 µM.
In the assay on A172 glioblastoma cells, `O=S(=O)(Nc1ccc(Cl)cc1)N1CCCC(=C(c2ccc(F)cc2)c2ccc(F)cc2)C1` [Example 108] had an IC50 of 16.1 µM.
`O=S(=O)(Nc1ccc(C(F)(F)F)cc1)N1CCCC(=C(c2ccc(F)cc2)c2ccc(F)cc2)C1` [Example 109]: in the assay on A172 glioblastoma cells, 19.2 µM corresponded to half-maximal inhibition (IC50).
On to `O=S(=O)(Nc1ccccc1)N1CCCC(=C(c2ccc(F)cc2)c2ccc(F)cc2)C1` [Example 110], for which the IC50 in the assay with A172 glioblastoma cells was determined as 25 µM.
In the assay on A172 glioblastoma cells, `O=S(=O)(Nc1cccc(C(F)(F)F)c1)N1CCCC(=C(c2ccc(F)cc2)c2ccc(F)cc2)C1` [Example 111] registered a concentration for half-maximal inhibition (IC50) of 30 µM.
Consider `O=S(=O)(Nc1cccc(OC(F)(F)F)c1)N1CCCC(=C(c2ccc(F)cc2)c2ccc(F)cc2)C1` [Example 112], for which, in the assay with A172 glioblastoma cells, the IC50 came to 24 µM.
Same read-out and setting: the result for `O=S(=O)(Nc1cccc(OC(F)(F)F)c1)N1CCCC(C2c3ccccc3CCc3ccccc32)C1` (centres unmarked) [Example 113] reads 10.8 µM.

What is called IC50 is the concentration that inhibits the measured activity by half.
